Experimental data published in PMC11859423, “Fluorescent Probes to Image the KCa3.1 Channel in Tumor Cells” (Pharmaceutics, 2025).
Several values for one entry are separate records, joined by “and”; a condition that tells them apart may be missing. Equal entries are not always repeated. Entries after “also recorded” stand apart in the source; their conditions may differ.

Experiments:
Assay type in all cases: cell-based
[1] = biological target: T1, KCa3.1 channel in A549-3R cells (Homo sapiens, UniProt O15554); assay: Whole-cell patch clamp on A549-3R cells after channel opening with 1-EBIO
T1 construct: the non-small cell lung cancer cell line A549-3R with a high expression of the KCa3.1 channel was employed; endogenous in cells; host or cells: A549-3R cells
Protocol: Bath solution: 140 mM NaCl, 5 mM KCl, 10 mM HEPES, 1 mM MgCl2 and 1 mM CaCl2 in an aqueous solution; pH = 7.4 with NaOH.
Pipette solution: 140 mM KCl, 10 mM HEPES, 1.3 mM EGTA, 1 mM MgCl2 and 1.217 mM CaCl2 in an aqueous solution; pH = 7.4 with NaOH; free Ca^2+ concentration of 1 µM.
1-EBIO solution: 100 mM stock solution of 1-ethylbenzimidazolone (1-EBIO) in DMSO was diluted with the bath solution to 50 µM.
Test solution: A 10 mM stock solution of imaging compound 10b in DMSO was diluted with the bath solution to 1 µM.
Senicapoc solution: 10 mM stock solution of senicapoc (3) in DMSO was diluted with bath solution to 1 µM.
Whole-cell patch clamp experiments were conducted at room temperature using borosilicate glass pipettes (GC150TF-10, Harvard Ltd., Boston, MA, USA) connected to an EPC-10 amplifier (HEKA Electronics, Lambrecht, Germany). […] Current density was calculated by dividing the current amplitude determined at the end of the depolarization voltage ramp to +60 mV by the membrane capacitance obtained from the slow capacitance compensation. The calculated free Ca^2+ concentration of the pipette solution was 1 µmol/L to obtain full activation of the KCa channels during the patch clamp experiments. […] A multi-barreled application pipette with a tip diameter of ~100 µm was used for test solution applications close to the recorded cell. […]

[2] = biological target: T1, KCa3.1 channel in A549-3R cells; assay: Staining of fixed A549-3R tumor cells (Protocol 1), fluorescence microscopy; details: 10 min, 4 °C
Protocol: For the fixation of the cells, the DMEM medium was removed from the glass bottom dish after incubation for 24 h, and the cells were washed with 1 mL of PBS. Subsequently, 1 mL of 4% paraformaldehyde in PBS solution was added to the glass bottom dish and the mixture was incubated for 30 min at room temperature. Thereafter, the cells were washed five times with 1 mL of PBS and used for the cell staining experiments.
After fixation of the cells (Section 2.10.2), 300 µL of the 10 µM staining solution was added to the glass bottom dish. The cells were incubated for 10 min at 4 °C in a dark chamber. After incubation, the cells were washed five times with 1 mL of PBS and used subsequently for fluorescence microscopy.
An Axiovert 200 inverted microscope (Carl Zeiss AG, Jena, Germany) with a ×100 oil immersion objective and a digital camera (SPOT RT SE from Diagnostic Instruments Inc., Livingston, UK) were used. The camera was controlled by MetaVue software (version 6.3r6, Visitron, Germany). Two different filter sets were employed, the FITC filter set (Carl Zeiss Filter Set 10 bandwidth excitation filter 450–490, color splitter 510, bandpass filter 515–565) and the TRITC filter set (Carl Zeiss Filter Set 15, bandpass excitation filter 546/12, dichroic mirror 580, emission filter Long Pass 590).
Using the free imaging software ImageJ (1.53f51, NIH, USA), squares with an edge length of 50 × 50 pixels, corresponding to an area of 9 µm^2, were randomly placed in a cell and signals with Full Width at Half Maximum (FWHM) of ≤5 pixels (~300 nm) were counted as a KCa3.1 channel. For the evaluation, 7 squares were analyzed.
For the staining experiments, the non-small cell lung cancer cell line A549-3R with a high expression of the KCa3.1 channel was employed. An optimized staining protocol (Protocol 1) described previously was followed to analyze the imaging properties of the fluorescent probes. In brief, the 10 µM solution of the senicapoc–dye conjugate in PBS was added to adherent A549-3R cells in a glass bottom dish and the set-up was incubated for 10 min at 4 °C in a dark chamber. After careful washing, the cells were analyzed with a fluorescence microscope.
The images were analyzed with respect to size and density of the fluorescent dots. For this purpose, a square with a size of 50 × 50 pixels was randomly placed on the cell images using ImageJ. The intensities of the signals within the square were analyzed to calculate the Full Width at Half Maximum (FWHM) for each selected dot, which represents a measure for the signal size. For the accurate representation of a single KCa3.1 channel, the FWHM should be in the range of five pixels. Signals with a FWHM of ≤5 pixels within the square were regarded as labeled KCa3.1 channels and the number of identified channels was used to determine the density of the ion channels on the cells (Figure S8, Supplementary Materials).

[3] = biological target: T1, KCa3.1 channel in A549-3R cells; assay: Blocking of staining by preincubation with senicapoc, fixed and living A549-3R cells (Protocols 3 and 4); details: 30 µM senicapoc, 5 min, 4 °C
Protocol: After fixation of the cells (Section 2.10.2), 300 µL of a 30 µM solution of senicapoc blocking solution was added to the glass bottom dish. The glass bottom dish was incubated for 5 min at 4 °C. After incubation, the solution was removed and a mixture of 150 µL of 60 µM senicapoc solution and 150 µL of 20 µM staining solution were added to the glass bottom dish. The cells were incubated for 10 min at 4 °C in a dark chamber. Subsequently, the cells were washed five times with PBS and then used for fluorescence microscopy.
The cells were used without fixation. After incubating the cells for 24 h (Section 2.10.1), the medium was removed, and the cells were washed three times with 1 mL of PBS. Subsequently, the cells were stained as described in Protocol 3.
In order to show the specificity of labeling KCa3.1 channels by the fluorescent probe 10b, fixed and living cells were preincubated with 30 µM senicapoc (3) for 5 min at 4 °C. […] The complete blockade of the punctate staining pattern confirms that the KCa3.1 channel was labeled with probe 10b.

## CCC1=C(C)C2=C(c3ccc(OCCOCCn4cc(COc5ccc(C(C(N)=O)(c6ccccc6)c6ccc(F)cc6)cc5)nn4)cc3)c3c(C)c(CC)c(C)n3[B-](F)(OC)[N+]2=C1C (stereo not drawn) [10b, 2-{4-[(1-{2-[4-(2,6-Diethyl-4-fluoro-4-methoxy-1,3,5,7-tetramethyl-4-bora-3a,4a-diaza-s-indacen-8-yl)phenoxy]ethoxyethyl}-1,2,3-triazol-4-yl)methoxy]phenyl}-2-(4-flluorophenyl)-2-phenylacetamide]
[1]; 1 µM each, channel opened with 1-EBIO
  inhibitory activity compared with senicapoc: only slightly lower than the inhibitory activity of senicapoc
[1]; 1 µM, channel opened with 50 µM 1-EBIO, whole A549-3R cells
  inhibition of the KCa3.1 ion channel current: inhibited the ion channel considerably; also recorded: inhibited the ion current
[2]; 10 µM in PBS, Protocol 1
  staining pattern of fixed A549-3R tumor cells: expected punctate staining pattern of the membrane
[2]; fixed A549-3R cells, 10 µM
  FWHM of fluorescent dots: 5.27 ± 0.22 pixels and 5.27 pixels
  density of labeled KCa3.1 channels: 1.22 ± 0.26 KCa3.1 channels per µm^2 and 1.22 KCa3.1 channels per µm^2
[3]
  staining pattern after preincubation with senicapoc: did not lead to a punctate staining pattern
